For data set [1], the target named is T1, 5-hydroxytryptamine receptor 2C (Rattus norvegicus, UniProt P08909).
T1 sequence (P08909 whole entry): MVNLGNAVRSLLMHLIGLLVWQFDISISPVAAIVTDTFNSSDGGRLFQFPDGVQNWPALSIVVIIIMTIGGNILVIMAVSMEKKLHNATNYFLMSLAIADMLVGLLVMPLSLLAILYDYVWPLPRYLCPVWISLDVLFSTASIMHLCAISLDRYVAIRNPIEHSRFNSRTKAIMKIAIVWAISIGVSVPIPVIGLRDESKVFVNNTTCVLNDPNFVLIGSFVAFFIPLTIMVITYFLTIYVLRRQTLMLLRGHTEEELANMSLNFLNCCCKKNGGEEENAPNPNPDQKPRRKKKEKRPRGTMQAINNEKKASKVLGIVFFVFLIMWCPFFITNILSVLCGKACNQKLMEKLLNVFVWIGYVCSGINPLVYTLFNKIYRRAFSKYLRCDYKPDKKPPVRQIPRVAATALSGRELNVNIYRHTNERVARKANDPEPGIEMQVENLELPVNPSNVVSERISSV
Nature of the data set: Displacement of [3H]mesulergine from 5-HT2C receptor in rat cerebral cortex homogenates after 60 mins by liquid scintillation counting. The format is tissue-based. (Displacement assays read how much labelled ligand stays bound in the presence of the test substance.)

The target in data set [2] is D(2) dopamine receptor (Rattus norvegicus, UniProt P61169). The experiment in a line: Displacement of [3H]spiperone from dopaminergic D2 receptor in rat striatum homogenates after 60 mins by liquid scintillation counting.
Chain of D(2) dopamine receptor (P61169 whole entry): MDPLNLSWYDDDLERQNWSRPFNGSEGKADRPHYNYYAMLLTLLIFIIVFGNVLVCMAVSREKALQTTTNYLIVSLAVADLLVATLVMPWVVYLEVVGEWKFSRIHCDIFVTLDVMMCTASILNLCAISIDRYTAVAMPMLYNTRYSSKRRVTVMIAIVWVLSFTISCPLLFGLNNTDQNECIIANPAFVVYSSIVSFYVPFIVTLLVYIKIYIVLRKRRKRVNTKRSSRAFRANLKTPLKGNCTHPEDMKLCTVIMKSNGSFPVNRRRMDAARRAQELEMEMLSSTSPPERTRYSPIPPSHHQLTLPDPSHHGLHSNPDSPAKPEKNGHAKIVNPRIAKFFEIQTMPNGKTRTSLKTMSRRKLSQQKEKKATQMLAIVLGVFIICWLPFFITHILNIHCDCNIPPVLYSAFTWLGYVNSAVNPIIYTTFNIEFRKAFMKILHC
Data set [3] deals with T2, Adrenergic receptor alpha-2 (Rattus norvegicus, UniProt P22086+P19328+P22909).
T2 sequence (P22086 whole entry): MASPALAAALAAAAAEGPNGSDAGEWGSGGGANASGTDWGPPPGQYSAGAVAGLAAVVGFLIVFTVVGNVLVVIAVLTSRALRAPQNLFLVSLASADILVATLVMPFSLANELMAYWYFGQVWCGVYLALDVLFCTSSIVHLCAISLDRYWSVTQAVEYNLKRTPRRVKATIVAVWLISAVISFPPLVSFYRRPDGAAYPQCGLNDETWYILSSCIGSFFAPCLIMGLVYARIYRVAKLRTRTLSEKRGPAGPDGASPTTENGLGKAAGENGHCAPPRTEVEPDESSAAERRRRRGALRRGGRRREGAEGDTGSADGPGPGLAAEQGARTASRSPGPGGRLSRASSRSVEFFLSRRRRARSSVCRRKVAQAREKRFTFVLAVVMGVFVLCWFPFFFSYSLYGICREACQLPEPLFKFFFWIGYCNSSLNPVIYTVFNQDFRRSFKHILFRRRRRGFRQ
T2 sequence (P19328 whole entry): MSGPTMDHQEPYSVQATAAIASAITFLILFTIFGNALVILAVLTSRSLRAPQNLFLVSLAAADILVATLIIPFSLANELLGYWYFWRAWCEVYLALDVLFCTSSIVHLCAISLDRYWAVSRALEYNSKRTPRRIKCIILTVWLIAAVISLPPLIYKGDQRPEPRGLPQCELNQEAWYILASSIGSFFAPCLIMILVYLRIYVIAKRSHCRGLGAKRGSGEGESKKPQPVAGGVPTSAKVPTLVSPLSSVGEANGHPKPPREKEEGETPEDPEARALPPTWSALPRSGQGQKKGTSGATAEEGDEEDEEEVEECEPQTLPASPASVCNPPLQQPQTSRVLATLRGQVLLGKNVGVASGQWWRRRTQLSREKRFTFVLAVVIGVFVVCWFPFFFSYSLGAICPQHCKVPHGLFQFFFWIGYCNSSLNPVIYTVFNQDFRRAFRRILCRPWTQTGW
T2 sequence (P22909 whole entry): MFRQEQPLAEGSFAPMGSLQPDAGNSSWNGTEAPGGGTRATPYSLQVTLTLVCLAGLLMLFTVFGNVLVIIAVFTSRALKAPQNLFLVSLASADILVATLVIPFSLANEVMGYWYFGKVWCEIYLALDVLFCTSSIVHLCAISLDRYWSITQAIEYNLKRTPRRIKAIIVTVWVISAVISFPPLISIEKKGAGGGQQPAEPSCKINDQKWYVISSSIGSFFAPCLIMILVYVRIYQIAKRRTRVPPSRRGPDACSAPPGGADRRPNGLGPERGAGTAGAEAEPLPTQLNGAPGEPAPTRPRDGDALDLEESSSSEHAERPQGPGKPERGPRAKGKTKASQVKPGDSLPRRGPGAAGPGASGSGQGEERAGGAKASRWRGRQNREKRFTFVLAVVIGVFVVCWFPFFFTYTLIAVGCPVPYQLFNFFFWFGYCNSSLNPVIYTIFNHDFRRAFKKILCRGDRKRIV
The experiment in a line: Displacement of [3H]-rauwolscine from adrenergic alpha2 receptor in rat cerebral cortex homogenates after 60 mins by liquid scintillation counting. The data set is classed as tissue-based.

Data set [4] addresses 5-hydroxytryptamine receptor 2A (Rattus norvegicus, UniProt P14842). The experiment in a line: Displacement of [3H]ketanserine from 5-HT2A receptor in rat cerebral cortex homogenates after 60 mins by liquid scintillation counting. The data set is classed as tissue-based.
Data set [5] addresses 5-hydroxytryptamine receptor 7 (Rattus norvegicus, UniProt P32305). The experiment in a line: biochemical.
Description: Displacement of [3H]-5-CT from 5-HT7 receptor in rat hypothalamus homogenates after 120 mins by liquid scintillation counting
The nature of data set [6]: Acute toxicity in Sprague-Dawley rat. The settings on record: in vivo. The format is organism-based.
For data set [7], the target named is T3, 5-hydroxytryptamine receptor 1A (Rattus norvegicus, UniProt P19327).
T3 sequence (P19327 whole entry): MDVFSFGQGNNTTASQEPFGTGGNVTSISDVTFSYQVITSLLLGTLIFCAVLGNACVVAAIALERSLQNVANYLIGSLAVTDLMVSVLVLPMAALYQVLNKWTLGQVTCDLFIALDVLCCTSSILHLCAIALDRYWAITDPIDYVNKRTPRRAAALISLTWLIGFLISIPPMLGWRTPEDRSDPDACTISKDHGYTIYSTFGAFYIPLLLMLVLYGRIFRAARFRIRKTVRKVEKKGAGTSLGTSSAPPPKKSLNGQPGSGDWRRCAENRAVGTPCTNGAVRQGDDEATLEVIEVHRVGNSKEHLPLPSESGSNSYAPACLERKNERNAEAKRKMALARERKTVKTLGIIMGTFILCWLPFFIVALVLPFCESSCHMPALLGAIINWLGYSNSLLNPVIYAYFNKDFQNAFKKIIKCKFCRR
Nature of the data set: Displacement of [3H]8-OH-DPAT from 5-HT1A receptor in rat cerebral cortex homogenates after 60 mins by liquid scintillation counting. The data set is classed as tissue-based.

As usually defined, the Ki is a measure of affinity in units of concentration, obtained from inhibition or displacement. The LD50 is the dose at which mortality reaches 50%. The low end stands for a more toxic substance, the high end for a less toxic substance.

Chain of 5-hydroxytryptamine receptor 7 (P32305 whole entry): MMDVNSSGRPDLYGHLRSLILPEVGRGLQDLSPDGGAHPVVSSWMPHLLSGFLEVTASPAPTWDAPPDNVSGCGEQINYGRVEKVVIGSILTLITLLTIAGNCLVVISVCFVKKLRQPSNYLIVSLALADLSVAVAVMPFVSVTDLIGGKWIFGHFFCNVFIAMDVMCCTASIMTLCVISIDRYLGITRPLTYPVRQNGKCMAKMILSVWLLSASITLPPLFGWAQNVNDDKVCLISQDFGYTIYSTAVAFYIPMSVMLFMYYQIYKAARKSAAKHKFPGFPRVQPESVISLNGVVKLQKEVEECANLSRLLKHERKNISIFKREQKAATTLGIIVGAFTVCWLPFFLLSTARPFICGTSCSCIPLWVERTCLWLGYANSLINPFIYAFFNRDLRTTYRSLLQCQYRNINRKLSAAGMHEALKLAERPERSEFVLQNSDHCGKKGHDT
Chain of 5-hydroxytryptamine receptor 2A (P14842 whole entry): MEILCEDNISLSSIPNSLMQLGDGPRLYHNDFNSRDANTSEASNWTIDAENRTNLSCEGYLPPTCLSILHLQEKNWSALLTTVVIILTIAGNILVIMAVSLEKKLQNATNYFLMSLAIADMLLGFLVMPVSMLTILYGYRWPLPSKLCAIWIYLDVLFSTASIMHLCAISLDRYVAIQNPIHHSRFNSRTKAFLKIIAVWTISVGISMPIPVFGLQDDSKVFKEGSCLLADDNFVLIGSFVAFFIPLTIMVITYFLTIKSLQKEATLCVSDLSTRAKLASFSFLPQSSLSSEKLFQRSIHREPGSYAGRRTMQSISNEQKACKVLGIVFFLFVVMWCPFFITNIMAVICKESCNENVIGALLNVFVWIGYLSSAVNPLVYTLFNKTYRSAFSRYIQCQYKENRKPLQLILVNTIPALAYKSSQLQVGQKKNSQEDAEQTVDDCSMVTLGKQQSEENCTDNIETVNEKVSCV

Turning to `Fc1ccc2c(C3CCN(CCCOc4ccc(Cc5nc6ccccc6o5)cc4)CC3)noc2c1`, the Ki stood at 1990 nM in data set [1]; 10.6 nM in data set [2]; 16.3 nM in data set [3]; 2.7 nM in data set [4]; 18.9 nM in data set [5]; 21.3 nM in data set [7]. This compound also displayed a median lethal dose (LD50) in data set [6] of more than 2000 mg/kg.

For `Fc1ccc2c(C3CCN(CCCOc4ccc(-c5nc6ccccc6o5)cc4)CC3)noc2c1`, the Ki in data set [1] was determined as 186 nM; in data set [2], 22.1 nM; in data set [3], 153 nM; in data set [4], 8.3 nM; in data set [5], 765 nM; in data set [7], 83.5 nM. Further, the LD50 in data set [6] was more than 2000 mg/kg.

For the origin of these results see ChEMBL document CHEMBL3632483, “Synthesis and pharmacological evaluation of piperidine (piperazine)-substituted benzoxazole derivatives as multi-target antipsychotics” (Bioorg Med Chem Lett, 2015).
